Data on 21 compounds can be found in ChEMBL document CHEMBL4152297, “Ligand-selective small molecule modulators of the constitutively active vGPCR US28” (Eur J Med Chem, 2018).

Active and inactive are the calls of the source. The rule behind the calls is not given here.

A word on the inhibition: it is the share of the control response that was lost under treatment. A word on the IC50: it is the concentration needed to halve the response being measured. The pIC50 is the negative decadic logarithm of the IC50, by convention in mol/L.

The first experiment relates to HEK293. In words: Modulation of basal activity of HCMV US28 expressed in tetracyclin-induced HEK293 cells assessed as change in inositol phosphate accumulation at 10 uM using [3H]-myo-inositol by scintillation proximity assay relative to control. The experiment is classed as cell-based. The note with it: Human betaherpesvirus 5.
Turning to `O=C(CN1CCN(Cc2csc(-c3ccccc3)n2)CC1)Nc1ccc(F)cc1`, the Efficacy is -17%.

Turning to `O=C(CN1CCN(CC2CCCCC2)CC1)Nc1ccc(F)cc1`, the Efficacy is -15%.

In the case of `Cc1ccc2nc(CN3CCN(CC(=O)Nc4ccc(F)cc4)CC3)cc(=O)n2c1`, the Efficacy was -10%.

A further experiment has as its system HEK293. Put plainly: Displacement of [125I]-CX3CL1 from HCMV US28 expressed in HEK293 cells at 10 uM after 3 hrs by gamma counting method relative to control. The note with it: Human betaherpesvirus 5. Type of experiment: cell-based.
As for `Cc1sc2nc(CN3CCN(CC(=O)NC4CCC(C)CC4)CC3)[nH]c(=O)c2c1C` (configuration not stated), the inhibition amounted to 32%.

A further experiment deals with HEK293. In words: Displacement of [125I]-CCL2 from HCMV US28 expressed in HEK293 cells at 10 uM after 3 hrs by gamma counting method relative to control. Type of experiment: cell-based. The note with it: Human betaherpesvirus 5. In general terms: Displacement assays read how much labelled ligand stays bound in the presence of the test substance.
`O=C(CN1CCN(Cc2nc3ccccc3[nH]2)CC1)Nc1ccc(F)cc1F`: the Efficacy is -7%.

With `Cn1c(CN2CCN(CC(=O)Nc3ccc(OC(F)(F)F)cc3)CC2)nc2ccccc21`, the Efficacy was determined as 7%.

As for `Cc1sc2nc(CN3CCN(CC(=O)NC4CCC(C)CC4)CC3)[nH]c(=O)c2c1C` (configuration not stated), the inhibition result was “Active”.

In the case of `Cc1nc2ccccc2n1CC1CCN(CC(=O)Nc2cccnc2)CC1`, the Efficacy is -2%.

For `O=C(CN1CCC(Cn2cnc3ccccc32)CC1)Nc1nc2ccc(F)cc2s1`, the Efficacy turned out to be 20%.

As for `COC(=O)c1ccc(NC(=O)CN2CCC(Cn3c(C)nc4ccccc43)CC2)cc1`, the Efficacy is 32%.

Take `CNC(=O)NC(=O)CN1CCC(Cn2c(C)nc3ccccc32)CC1`: the Efficacy came to 0%.

For `Cc1nc2ccccc2n1CC1CCN(Cc2ccc(F)c(F)c2)CC1`, the Efficacy was determined as 46%.

Consider `O=C(CN1CCC(Cn2cnc3ccccc32)CC1)Nc1nccs1`, for which the Efficacy turned out to be 5%.

For `O=C(CN1CCC(Cn2cnc3ccccc32)CC1)Nc1ccccn1`, the Efficacy amounted to 10%.

Consider `NC(=O)c1ccc(NC(=O)CN2CCC(Cn3cnc4ccccc43)CC2)cc1`, for which the Efficacy was -4%.

System in the next experiment: not listed separately
In words: Displacement of [125I]-CCL2 from HCMV US28 expressed in HEK293 cells after 3 hrs by gamma counting method.
Conditions: not given
The experiment is classed as cell-based, Human betaherpesvirus 5.
In the case of `O=C(CN1CCC(Cn2cnc3ccccc32)CC1)Nc1nc2ccc(F)cc2s1`, the IC50 was over 10 µM.

For the compound `COC(=O)c1ccc(NC(=O)CN2CCC(Cn3c(C)nc4ccccc43)CC2)cc1`, the IC50 is 9.56 µM and the pIC50 worked out at 5.02.

On to `Cc1nc2ccccc2n1CC1CCN(Cc2ccc(F)c(F)c2)CC1`, for which the IC50 was 5.26 µM and the pIC50 was determined as 5.28.

Compound `Cc1nc2ccccc2n1CC1CCN(CC(=O)NCCc2ccccc2)CC1` displayed an IC50 of 5.29 µM.

System in another experiment: not listed separately
In words: Modulation of basal activity of HCMV US28 delta300 mutant expressed in tetracyclin-induced HEK293 cells assessed as change in inositol phosphate accumulation using [3H]-myo-inositol by scintillation proximity assay. Type of experiment: cell-based. The note with it: Human betaherpesvirus 5, HEK293; read-out: EC50. On the technique in general: SPA uses beads or plates that emit light when radiolabelled molecules are held near them.
`Cn1c(CN2CCN(CC(=O)Nc3ccc(OC(F)(F)F)cc3)CC2)nc2ccccc21`: the EC50 came out at 3.36 µM.

For `Cc1cc2ncn(CC3CCN(CC(=O)Nc4ccc5c(c4)OCO5)CC3)c2cc1C`, the EC50 worked out at 1.52 µM.

As to `O=C(CN1CCN(Cc2csc3ccccc23)CC1)NC1CCCC1`, the EC50 is over 10 µM.

For the compound `Cc1sc2nc(CN3CCN(CC(=O)NC4CCC(C)CC4)CC3)[nH]c(=O)c2c1C` (configuration not stated), the EC50 turned out to be 1.56 µM.

Regarding `CCc1ccc(-c2nc(CN3CCN(CC(=O)NC4CC4)CC3)cs2)cc1`, the EC50 worked out at 11 µM.

For the compound `COC(=O)c1ccc(NC(=O)CN2CCC(Cn3c(C)nc4ccccc43)CC2)cc1`, the EC50 worked out at 0.884 µM.

`Cc1nc2ccccc2n1CC1CCN(Cc2ccc(F)c(F)c2)CC1`: the EC50 amounted to 1.48 µM.

As to `Cc1nc2ccccc2n1CC1CCN(CC(=O)NCCc2ccccc2)CC1`, the EC50 is 1.8 µM.

As for `NC(=O)c1ccc(NC(=O)CN2CCC(Cn3c(COc4ccccc4)nc4ccccc43)CC2)cc1`, the EC50 worked out at 7.96 µM.

On to `Cc1cc(C)n(CC2CCN(CC(=O)N3CCc4ccccc43)CC2)n1`, for which the EC50 is over 10 µM.

Staying with this experiment, now noted: Human betaherpesvirus 5, HEK293; read-out: pEC50 (converted).
Take `Cn1c(CN2CCN(CC(=O)Nc3ccc(OC(F)(F)F)cc3)CC2)nc2ccccc21`: the EC50 is 3.16 µM.

Take `Cc1cc2ncn(CC3CCN(CC(=O)Nc4ccc5c(c4)OCO5)CC3)c2cc1C`: the EC50 was 1.58 µM.

With `O=C(CN1CCN(Cc2csc3ccccc23)CC1)NC1CCCC1`, the EC50 was under 10 µM.

For the compound `Cc1sc2nc(CN3CCN(CC(=O)NC4CCC(C)CC4)CC3)[nH]c(=O)c2c1C` (configuration not stated), the EC50 is 1.58 µM.

On to `CCc1ccc(-c2nc(CN3CCN(CC(=O)NC4CC4)CC3)cs2)cc1`, for which the EC50 is 10 µM.

With `COC(=O)c1ccc(NC(=O)CN2CCC(Cn3c(C)nc4ccccc43)CC2)cc1`, the EC50 was 0.794 µM.

For the compound `Cc1nc2ccccc2n1CC1CCN(Cc2ccc(F)c(F)c2)CC1`, the EC50 was 1.58 µM.

For `Cc1nc2ccccc2n1CC1CCN(CC(=O)NCCc2ccccc2)CC1`, the EC50 is 2 µM.

Turning to `NC(=O)c1ccc(NC(=O)CN2CCC(Cn3c(COc4ccccc4)nc4ccccc43)CC2)cc1`, the EC50 is 7.94 µM.

`Cc1cc(C)n(CC2CCN(CC(=O)N3CCc4ccccc43)CC2)n1`: the EC50 was under 10 µM.

The next experiment has as its system HEK293. In words: Modulation of basal activity of HCMV US28 delta300 mutant expressed in tetracyclin-induced HEK293 cells assessed as change in inositol phosphate accumulation at 10 uM using [3H]-myo-inositol by scintillation proximity assay relative to control. The experiment is classed as cell-based. The note with it: Human betaherpesvirus 5.
Take `Cn1c(CN2CCN(CC(=O)Nc3ccc(OC(F)(F)F)cc3)CC2)nc2ccccc21`: the Efficacy came to 59%.

Take `Cc1cc2ncn(CC3CCN(CC(=O)Nc4ccc5c(c4)OCO5)CC3)c2cc1C`: the Efficacy was 58%.

For the compound `O=C(CN1CCN(Cc2csc3ccccc23)CC1)NC1CCCC1`, the Efficacy was 56%.

With `Cc1sc2nc(CN3CCN(CC(=O)NC4CCC(C)CC4)CC3)[nH]c(=O)c2c1C` (configuration not stated), the Efficacy amounted to 118%.

As to `CCc1ccc(-c2nc(CN3CCN(CC(=O)NC4CC4)CC3)cs2)cc1`, the Efficacy stood at 51%.

With `COC(=O)c1ccc(NC(=O)CN2CCC(Cn3c(C)nc4ccccc43)CC2)cc1`, the Efficacy was found to be 70%.

`Cc1nc2ccccc2n1CC1CCN(Cc2ccc(F)c(F)c2)CC1`: the Efficacy was determined as 93%.

In the case of `Cc1nc2ccccc2n1CC1CCN(CC(=O)NCCc2ccccc2)CC1`, the Efficacy stood at 107%.

In the case of `NC(=O)c1ccc(NC(=O)CN2CCC(Cn3c(COc4ccccc4)nc4ccccc43)CC2)cc1`, the Efficacy is 77%.

Consider `Cc1cc(C)n(CC2CCN(CC(=O)N3CCc4ccccc43)CC2)n1`, for which the Efficacy was 76%.

System in a further experiment: not listed separately
In words: Agonist activity at HCMV US28 expressed in African green monkey COS7 cells assessed as increase in inositol phosphate accumulation using [3H]-myo-inositol after 90 mins by scintillation proximity assay. The experiment is classed as cell-based. The settings on record: Human betaherpesvirus 5, COS-7.
Turning to `CC(=O)c1ccc(N2CCN(Cc3nc4scc(-c5ccccc5)c4c(=O)[nH]3)CC2)cc1`, the EC50 was 0.95 µM.
